Data from ChEMBL document CHEMBL1157659, “Design, synthesis, and biological evaluation of 3-[4-(2-hydroxyethyl)piperazin-1-yl]-7-(6-methoxypyridin-3-yl)-1-(2-propoxyethyl)pyrido[3,4-b]pyrazin-2(1H)-one, a potent, orally active, brain penetrant inhibitor of phosphodiesterase 5 (PDE5)” (J Med Chem, 2010).
Active and inactive are the calls of the source. The calls are words filed in the database; no cut-off is given here.

Tests used:
Homo sapiens [1] = species: Homo sapiens; assay: Selectivity ratio of IC50 for human retina PDE6 to IC50 for human platelet PDE5
Homo sapiens [2] = species: Homo sapiens; assay: Selectivity ratio of IC50 for human recombinant PDE11 to IC50 for human platelet PDE5
[3] = Inhibition of PDE2
[4] = target: 3',5'-cyclic-AMP phosphodiesterase 4C (Homo sapiens, UniProt Q08493); assay: Inhibition of PDE4C
Chain of 3',5'-cyclic-AMP phosphodiesterase 4C (Q08493 whole entry): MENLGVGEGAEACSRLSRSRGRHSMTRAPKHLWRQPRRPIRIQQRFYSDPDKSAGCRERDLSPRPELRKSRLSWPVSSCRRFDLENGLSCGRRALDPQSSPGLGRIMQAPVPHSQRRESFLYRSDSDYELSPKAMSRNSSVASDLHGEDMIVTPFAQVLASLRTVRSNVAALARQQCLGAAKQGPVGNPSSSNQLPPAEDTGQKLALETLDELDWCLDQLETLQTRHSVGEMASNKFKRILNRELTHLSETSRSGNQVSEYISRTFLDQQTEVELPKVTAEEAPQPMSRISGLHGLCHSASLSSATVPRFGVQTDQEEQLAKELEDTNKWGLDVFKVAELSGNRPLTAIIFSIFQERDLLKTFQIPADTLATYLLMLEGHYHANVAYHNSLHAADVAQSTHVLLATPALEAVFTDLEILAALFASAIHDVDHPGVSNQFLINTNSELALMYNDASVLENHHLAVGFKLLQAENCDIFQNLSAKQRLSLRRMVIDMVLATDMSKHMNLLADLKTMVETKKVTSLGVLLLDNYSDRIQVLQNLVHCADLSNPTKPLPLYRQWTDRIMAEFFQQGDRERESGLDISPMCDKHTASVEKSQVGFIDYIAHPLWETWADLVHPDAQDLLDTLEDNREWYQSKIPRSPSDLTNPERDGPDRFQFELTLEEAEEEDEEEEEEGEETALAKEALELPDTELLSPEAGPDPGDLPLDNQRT

Rattus norvegicus [5] = assay: Toxicity in iv dosed SHR rat administered as three successive escalating doses; format: organism-based; conditions: in vivo
[6] = Ratio of drug level in brain to blood in Sprague-Dawley rat at 10 mg/kg, sc administered as single dose measured after 2 hrs; format: ADME, organism-based; set-up: dose 10 mg/kg, route subcutaneous; conditions: read-out: BBR
Plasma [7] = assay: Fraction unbound in human plasma; format: ADME, cell-free
[8] = target: 3',5'-cyclic-AMP phosphodiesterase 4D (Homo sapiens, UniProt Q08499); assay: Inhibition of PDE4D
[9] = target: Dual specificity calcium/calmodulin-dependent 3',5'-cyclic nucleotide phosphodiesterase 1C (Homo sapiens, UniProt Q14123); assay: Inhibition of PDE1C
Rattus norvegicus [10] = assay: Antihypertensive activity in anesthetized SHR rat assessed as reduction of systolic blood pressure at 2 mg/kg, po after 24 hrs relative to control; format: functional, Artery
[11] = Elimination half life in healthy human; format: ADME, organism-based; conditions: in vivo, read-out: beta t1/2 (converted)
[12] = Inhibition of PDE9
Rattus norvegicus [13] = assay: Free plasma concentration in iv dosed anesthetized SHR rat administered as three successive escalating doses; format: ADME, organism-based; conditions: in vivo
[14] = Bioavailability in dog; format: ADME, organism-based, Canis lupus familiaris; conditions: in vivo
[15] = target: High affinity cAMP-specific and IBMX-insensitive 3',5'-cyclic phosphodiesterase 8B (Homo sapiens, UniProt O95263); assay: Inhibition of PDE8B
[16] = target: Dual specificity calcium/calmodulin-dependent 3',5'-cyclic nucleotide phosphodiesterase 1A (Homo sapiens, UniProt P54750); assay: Inhibition of PDE1A
Chain of Dual specificity calcium/calmodulin-dependent 3',5'-cyclic nucleotide phosphodiesterase 1A (P54750 whole entry): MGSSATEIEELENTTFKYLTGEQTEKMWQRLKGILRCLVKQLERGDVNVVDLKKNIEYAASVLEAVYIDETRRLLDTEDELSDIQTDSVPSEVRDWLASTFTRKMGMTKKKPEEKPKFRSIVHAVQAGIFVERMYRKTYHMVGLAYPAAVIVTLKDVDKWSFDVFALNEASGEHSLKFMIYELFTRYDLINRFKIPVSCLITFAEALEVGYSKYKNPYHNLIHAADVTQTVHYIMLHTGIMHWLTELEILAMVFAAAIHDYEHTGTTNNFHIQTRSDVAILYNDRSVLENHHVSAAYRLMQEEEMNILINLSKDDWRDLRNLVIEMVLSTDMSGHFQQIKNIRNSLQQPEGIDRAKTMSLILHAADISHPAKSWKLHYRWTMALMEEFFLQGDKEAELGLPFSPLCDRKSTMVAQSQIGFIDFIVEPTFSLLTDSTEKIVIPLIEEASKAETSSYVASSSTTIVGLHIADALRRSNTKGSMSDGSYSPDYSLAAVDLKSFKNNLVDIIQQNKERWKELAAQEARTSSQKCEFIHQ

[17] = Metabolic stability in rat microsomes assessed as compound remaining after 30 mins; format: ADME, Microsome; conditions: read-out: Stability
[18] = target: Dual specificity calcium/calmodulin-dependent 3',5'-cyclic nucleotide phosphodiesterase 1B (Homo sapiens, UniProt Q01064); assay: Inhibition of PDE1B
[19] = Fraction unbound in rat plasma; format: ADME, cell-free
[20] = Plasma protein binding in rat; format: ADME, cell-free; conditions: read-out: PPB (converted)
[21] = Clearance in dog; format: ADME, organism-based, Canis lupus familiaris; conditions: in vivo
[22] = Inhibition of PDE7
Rattus norvegicus [23] = assay: Antihypertensive activity in iv dosed anesthetized SHR rat assessed as reduction of systemic arterial blood pressure at free plasma concentration of 2.3 nM; format: functional, organism-based; conditions: Artery
[24] = Metabolic stability in human microsomes assessed as compound remaining after 30 mins; format: ADME, Microsome; conditions: read-out: Stability
[25] = Clearance in Sprague-Dawley rat at 1 mg/kg, iv; format: ADME, organism-based; set-up: dose 1 mg/kg, route intravenous; conditions: in vivo
[26] = target: cGMP-inhibited 3',5'-cyclic phosphodiesterase 3B (Homo sapiens, UniProt Q13370); assay: Inhibition of PDE3B
Chain of cGMP-inhibited 3',5'-cyclic phosphodiesterase 3B (Q13370 whole entry): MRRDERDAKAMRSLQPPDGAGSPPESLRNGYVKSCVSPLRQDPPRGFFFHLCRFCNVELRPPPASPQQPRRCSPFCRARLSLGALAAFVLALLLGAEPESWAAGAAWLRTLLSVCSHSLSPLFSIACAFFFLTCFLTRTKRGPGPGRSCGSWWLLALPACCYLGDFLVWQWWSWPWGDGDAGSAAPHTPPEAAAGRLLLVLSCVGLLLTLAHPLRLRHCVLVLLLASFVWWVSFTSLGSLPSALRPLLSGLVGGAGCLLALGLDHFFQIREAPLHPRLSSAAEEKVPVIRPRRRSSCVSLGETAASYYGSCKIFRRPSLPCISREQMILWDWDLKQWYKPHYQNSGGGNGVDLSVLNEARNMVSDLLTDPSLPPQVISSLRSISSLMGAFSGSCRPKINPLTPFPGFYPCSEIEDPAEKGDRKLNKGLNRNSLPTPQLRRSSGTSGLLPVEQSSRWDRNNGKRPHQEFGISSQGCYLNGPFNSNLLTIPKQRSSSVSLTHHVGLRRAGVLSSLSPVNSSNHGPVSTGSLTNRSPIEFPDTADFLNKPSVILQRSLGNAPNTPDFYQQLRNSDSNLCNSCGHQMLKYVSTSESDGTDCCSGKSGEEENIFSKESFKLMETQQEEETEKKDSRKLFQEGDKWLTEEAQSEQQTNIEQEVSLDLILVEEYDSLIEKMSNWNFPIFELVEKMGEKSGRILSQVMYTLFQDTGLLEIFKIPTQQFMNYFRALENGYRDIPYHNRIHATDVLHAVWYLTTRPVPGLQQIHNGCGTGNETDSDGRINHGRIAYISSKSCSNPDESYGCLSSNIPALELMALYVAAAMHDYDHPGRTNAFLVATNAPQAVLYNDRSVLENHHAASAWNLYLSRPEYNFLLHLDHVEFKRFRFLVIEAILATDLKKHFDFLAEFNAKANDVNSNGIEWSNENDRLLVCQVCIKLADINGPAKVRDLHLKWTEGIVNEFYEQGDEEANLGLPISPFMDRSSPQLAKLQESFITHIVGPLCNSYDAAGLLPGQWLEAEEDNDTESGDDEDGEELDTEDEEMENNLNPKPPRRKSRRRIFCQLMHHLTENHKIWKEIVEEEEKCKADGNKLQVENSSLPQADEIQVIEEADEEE

[27] = Renal clearance in Sprague-Dawley rat as % compound recovered; format: ADME, organism-based, Kidney; conditions: urine, read-out: Recovered in urine
[28] = Ratio of free drug level in iv dosed SHR rat plasma administered as three successive escalating doses to IC50 for human platelet PDE5; format: ADME, organism-based; conditions: in vivo
[29] = Oral bioavailability in Sprague-Dawley rat at 1 mg/kg; format: ADME, organism-based; conditions: in vivo
[30] = target: 3',5'-cyclic-AMP phosphodiesterase 4B (Homo sapiens, UniProt Q07343); assay: Inhibition of PDE4B
Chain of 3',5'-cyclic-AMP phosphodiesterase 4B (Q07343 whole entry): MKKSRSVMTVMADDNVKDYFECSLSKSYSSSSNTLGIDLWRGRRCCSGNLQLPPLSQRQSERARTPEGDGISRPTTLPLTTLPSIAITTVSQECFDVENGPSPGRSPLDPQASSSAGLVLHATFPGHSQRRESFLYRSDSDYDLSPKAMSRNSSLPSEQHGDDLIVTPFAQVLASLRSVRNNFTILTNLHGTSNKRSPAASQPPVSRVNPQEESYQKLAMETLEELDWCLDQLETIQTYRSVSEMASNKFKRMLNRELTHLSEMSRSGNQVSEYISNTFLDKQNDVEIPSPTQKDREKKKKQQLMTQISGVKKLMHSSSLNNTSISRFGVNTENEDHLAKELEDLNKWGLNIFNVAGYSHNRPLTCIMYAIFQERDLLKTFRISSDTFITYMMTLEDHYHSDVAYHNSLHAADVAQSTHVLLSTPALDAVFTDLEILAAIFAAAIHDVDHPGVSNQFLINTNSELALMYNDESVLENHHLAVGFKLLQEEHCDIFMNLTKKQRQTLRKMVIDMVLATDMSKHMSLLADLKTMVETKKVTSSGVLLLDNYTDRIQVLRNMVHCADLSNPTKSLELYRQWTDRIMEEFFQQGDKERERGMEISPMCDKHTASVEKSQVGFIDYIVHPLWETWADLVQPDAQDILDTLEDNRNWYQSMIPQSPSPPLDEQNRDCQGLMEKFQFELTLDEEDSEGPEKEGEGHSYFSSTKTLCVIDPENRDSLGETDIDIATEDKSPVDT

[31] = Metabolic stability in cannulated Sprague-Dawley rat bile duct assessed as compound remaining after 6 hrs; format: ADME; conditions: read-out: Stability
[32] = target: cGMP-inhibited 3',5'-cyclic phosphodiesterase 3A (Homo sapiens, UniProt Q14432); assay: Inhibition of PDE3A
[33] = target: 3',5'-cyclic-AMP phosphodiesterase 4A (Homo sapiens, UniProt P27815); assay: Inhibition of PDE4A
[34] = target: 3',5'-cyclic-AMP phosphodiesterase 7B (Homo sapiens, UniProt Q9NP56); assay: Inhibition of PDE7B
Chain of 3',5'-cyclic-AMP phosphodiesterase 7B (Q9NP56 whole entry): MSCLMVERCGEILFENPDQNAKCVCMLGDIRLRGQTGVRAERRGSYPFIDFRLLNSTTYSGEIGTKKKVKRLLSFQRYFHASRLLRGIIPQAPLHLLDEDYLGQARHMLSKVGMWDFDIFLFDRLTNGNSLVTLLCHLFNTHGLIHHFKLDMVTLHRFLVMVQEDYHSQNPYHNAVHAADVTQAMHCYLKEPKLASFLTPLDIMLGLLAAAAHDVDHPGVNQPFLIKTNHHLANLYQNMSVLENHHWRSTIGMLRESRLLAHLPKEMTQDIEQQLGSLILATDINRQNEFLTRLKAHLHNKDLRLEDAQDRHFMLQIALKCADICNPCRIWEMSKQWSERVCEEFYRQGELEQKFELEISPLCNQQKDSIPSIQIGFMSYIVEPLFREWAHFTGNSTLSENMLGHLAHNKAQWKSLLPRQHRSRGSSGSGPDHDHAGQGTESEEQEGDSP

[35] = target: High affinity cAMP-specific and IBMX-insensitive 3',5'-cyclic phosphodiesterase 8A (Homo sapiens, UniProt O60658); assay: Inhibition of PDE8A
[36] = target: Voltage-gated inwardly rectifying potassium channel KCNH2 (Homo sapiens, UniProt Q12809); assay: Inhibition of human ERG by patch-clamp method
Chain of Voltage-gated inwardly rectifying potassium channel KCNH2 (Q12809 whole entry, the tested form may be a part): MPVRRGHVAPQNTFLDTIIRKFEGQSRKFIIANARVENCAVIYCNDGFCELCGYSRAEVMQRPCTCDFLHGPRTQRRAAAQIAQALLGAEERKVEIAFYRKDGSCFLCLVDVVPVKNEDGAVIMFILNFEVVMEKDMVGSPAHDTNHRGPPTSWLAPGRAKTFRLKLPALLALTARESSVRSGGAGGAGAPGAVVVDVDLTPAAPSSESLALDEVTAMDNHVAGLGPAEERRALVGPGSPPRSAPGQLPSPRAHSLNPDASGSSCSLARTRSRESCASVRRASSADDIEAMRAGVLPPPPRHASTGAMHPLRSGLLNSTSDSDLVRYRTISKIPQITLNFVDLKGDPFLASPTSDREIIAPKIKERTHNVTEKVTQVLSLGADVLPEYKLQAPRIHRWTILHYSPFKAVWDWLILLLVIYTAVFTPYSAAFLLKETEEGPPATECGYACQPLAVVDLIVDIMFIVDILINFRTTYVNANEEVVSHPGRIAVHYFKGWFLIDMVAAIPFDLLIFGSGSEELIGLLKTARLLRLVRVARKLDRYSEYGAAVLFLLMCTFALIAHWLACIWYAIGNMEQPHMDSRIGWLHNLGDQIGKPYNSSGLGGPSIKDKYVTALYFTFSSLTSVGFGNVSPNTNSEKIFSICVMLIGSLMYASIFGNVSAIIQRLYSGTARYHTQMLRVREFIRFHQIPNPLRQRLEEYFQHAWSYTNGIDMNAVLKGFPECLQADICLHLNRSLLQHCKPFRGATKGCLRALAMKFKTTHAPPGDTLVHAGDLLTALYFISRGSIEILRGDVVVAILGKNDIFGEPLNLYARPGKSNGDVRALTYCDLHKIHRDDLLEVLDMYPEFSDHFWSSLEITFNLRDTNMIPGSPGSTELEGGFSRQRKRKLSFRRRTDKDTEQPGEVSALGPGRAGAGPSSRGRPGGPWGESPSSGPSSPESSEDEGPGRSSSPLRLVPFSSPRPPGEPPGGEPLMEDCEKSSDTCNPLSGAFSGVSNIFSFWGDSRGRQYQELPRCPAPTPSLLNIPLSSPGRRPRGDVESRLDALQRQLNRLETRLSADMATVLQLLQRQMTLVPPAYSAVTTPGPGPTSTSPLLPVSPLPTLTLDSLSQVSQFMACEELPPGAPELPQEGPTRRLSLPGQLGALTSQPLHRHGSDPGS

Rattus norvegicus [37] = assay: Antihypertensive activity in iv dosed anesthetized SHR rat assessed as reduction of systemic arterial blood pressure administered as three successive escalating doses measured during 30 to 50 mins portion of each 1 hr steady state infusion; format: functional, organism-based; conditions: Artery
[38] = target: cGMP-specific 3',5'-cyclic phosphodiesterase (Homo sapiens, UniProt O76074); assay: Inhibition of human platelet PDE5 assessed as reduction in conversion of [3H]cGMP to [3H]GMP after 2 hr by scintillation proximity assay
[39] = Renal clearance in dog as % compound recovered; format: ADME, organism-based, Canis lupus familiaris, Kidney; conditions: urine, read-out: Recovered in urine
Plasma [40] = assay: Plasma protein binding in human; format: ADME, cell-free
[41] = Tmax in healthy human; format: ADME, organism-based; conditions: in vivo
[42] = Aqueous solubility at pH 7.4; format: physicochemical
Homo sapiens [43] = species: Homo sapiens; assay: Plasma protein binding in human; conditions: read-out: PPB (converted)
Homo sapiens [44] = species: Homo sapiens; assay: Fraction unbound in human plasma

SMILES: CCCOCCn1c(=O)c(N2CCCN(CCCO)CC2)nc2cnc(-c3ccc(OC)nc3)cc21
- Ratio IC50 (Homo sapiens [1]): 94
- Ratio IC50 (Homo sapiens [2]): > 1860

SMILES: CCCOCCn1c(=O)c(N2C[C@H]3C[C@@H]2CN3)nc2cnc(-c3ccc(OC)nc3)cc21
- Ratio IC50 (Homo sapiens [1]): 93
- Ratio IC50 (Homo sapiens [2]): 456

SMILES: CCCOCCn1c(=O)c(N2CCN(CCO)CC2)nc2cnc(-c3ccc(OC)nc3)cc21 [PF-03049423]
- IC50 [3]: > 2000 nM
- IC50 [4]: > 2000 nM
- Activity (Rattus norvegicus [5]): Non-toxic
- Kp at 2 h [6]: 4
- Fu (Plasma [7]): 18%
- IC50 [8]: > 2000 nM
- Ratio IC50 (Homo sapiens [1]): 158
- IC50 [9]: > 2000 nM
- Activity (Rattus norvegicus [10]): 25 mmHg
- half-life [11]: 17 h
- IC50 [12]: > 2000 nM
- Cp(f) (Rattus norvegicus [13]): 2.3 nM
- bioavailability [14]: 92%
- IC50 [15]: > 2000 nM
- IC50 [16]: > 2000 nM
- remaining at 0.5 h [17]: 89%
- IC50 [18]: > 2000 nM
- fraction unbound [19]: 0.18
- fraction unbound [20]: 0.171
- clearance [21]: 5.8 mL/min/kg
- IC50 [22]: > 2000 nM
- Activity (Rattus norvegicus [23]): Active
- remaining at 0.5 h [24]: 85%
- clearance [25]: 37 mL/min/kg
- IC50 [26]: > 2000 nM
- dose excreted [27]: < 2%
- Ratio [28]: 11
- bioavailability [29]: 69%
- IC50 [30]: > 2000 nM
- remaining at 6 h [31]: 2%
- IC50 [32]: > 2000 nM
- IC50 [33]: > 2000 nM
- IC50 [34]: > 2000 nM
- IC50 [35]: > 2000 nM
- IC50 [36]: 1790 nM
- Ratio IC50 (Homo sapiens [2]): 2460
- Activity (Rattus norvegicus [37]): Active
- IC50 [38]: 0.2 nM
- dose excreted [39]: < 2%
- PPB (Plasma [40]): 67.8%
- Tmax [41]: 1 h

SMILES: CCCOCCn1c(=O)c(N2CCN(CC(C)(C)O)CC2)nc2cnc(-c3ccc(OC)nc3)cc21
- Ratio IC50 (Homo sapiens [1]): 64
- Ratio IC50 (Homo sapiens [2]): 1370

SMILES: CCCOCCn1c(=O)c(NCCNCCO)nc2cnc(-c3ccc(OC)nc3)cc21
- solubility [42]: > 100 µM
- Ratio IC50 (Homo sapiens [1]): 242
- remaining at 0.5 h [17]: 100%
- fraction unbound [19]: 0.18
- fraction unbound [20]: 0.226
- remaining at 0.5 h [24]: 95%
- fraction unbound (Homo sapiens [43]): 0.212
- fraction unbound (Homo sapiens [44]): 0.18
- clearance [25]: 582 mL/min/kg
- IC50 [36]: 4500 nM
- Ratio IC50 (Homo sapiens [2]): > 1780

SMILES: CCCOCCn1c(=O)c(N2CCN([C@H](C)[C@@H](C)O)CC2)nc2cnc(-c3ccc(OC)nc3)cc21 (racemic)
- Ratio IC50 (Homo sapiens [1]): 68
- Ratio IC50 (Homo sapiens [2]): 2090
- IC50 [38]: 0.3 nM

SMILES: CCCOCCn1c(=O)c(NCCN)nc2cnc(-c3ccc(OC)nc3)cc21
- solubility [42]: > 100 µM
- Fu (Plasma [7]): 18%
- Ratio IC50 (Homo sapiens [1]): 4840
- remaining at 0.5 h [17]: 98%
- fraction unbound [19]: 0.18
- fraction unbound [20]: 0.166
- remaining at 0.5 h [24]: 97%
- clearance [25]: 170 mL/min/kg
- Ratio IC50 (Homo sapiens [2]): > 8000
- PPB (Plasma [40]): 69.4%

SMILES: CCCOCCn1c(=O)c(N2CCCN(CCO)CC2)nc2cnc(-c3ccc(OC)nc3)cc21
- Ratio IC50 (Homo sapiens [1]): 70
- Ratio IC50 (Homo sapiens [2]): > 2780

SMILES: CCCOCCn1c(=O)c(N2CCN([C@@H](C)[C@@H](C)O)CC2)nc2cnc(-c3ccc(OC)nc3)cc21 (racemic)
- Ratio IC50 (Homo sapiens [1]): 134
- IC50 [36]: 54 nM
- Ratio IC50 (Homo sapiens [2]): 1740

SMILES: CCCOCCn1c(=O)c(N2CCN(CC)CC2)nc2cnc(-c3ccc(OC)nc3)cc21
- IC50 [38]: 0.22 nM

SMILES: CCCOCCn1c(=O)c(N2CCN(C[C@@H](C)O)CC2)nc2cnc(-c3ccc(OC)nc3)cc21
- Ratio IC50 (Homo sapiens [1]): 134
- IC50 [36]: 230 nM
- Ratio IC50 (Homo sapiens [2]): 2380
- IC50 [38]: 0.23 nM

SMILES: CCCOCCn1c(=O)c(N2CCN(C[C@H](C)O)CC2)nc2cnc(-c3ccc(OC)nc3)cc21
- Ratio IC50 (Homo sapiens [1]): 49
- Ratio IC50 (Homo sapiens [2]): 1400
- IC50 [38]: 0.31 nM

SMILES: CCCOCCn1c(=O)c(N2CCNCC2)nc2cnc(-c3ccc(OC)nc3)cc21
- remaining at 0.5 h [17]: 86%
- fraction unbound [20]: 0.158
- remaining at 0.5 h [24]: 86%
- clearance [25]: 42 mL/min/kg
- IC50 [36]: 670 nM

SMILES: CCCOCCn1c(=O)c(N2CCN(CCCO)CC2)nc2cnc(-c3ccc(OC)nc3)cc21
- Ratio IC50 (Homo sapiens [1]): 62
- Ratio IC50 (Homo sapiens [2]): 4260
- IC50 [38]: 0.18 nM
